In patent publication US10137122B2, “Kinase inhibitors and methods of use thereof” (priority 2012, dated 2018):
Like-named read-outs stand apart in the source and are kept apart here.

Columns and labels:
[1] = system: TCF/LEF reporter in HEK293-pBARL cells; test: cells; details: Homo sapiens
Procedure: HEK293-pBARL cells were derived from HEK293 cells and they stably expressed a firefly-luciferase reporter gene driven by a promoter containing 12 copies of TCF/LEF binding sequences. These cells were maintained in DMEM and supplemented with 10% FBS and 1% penicillin-streptomycin (Invitrogen). Reporter gene assays were conducted in anti-biotic free media. […] These cells also contained a renilla-luciferase reporter gene driven by the ubiquitous EF1α promoter as a control. HEK293-pBarl reporter cell lines were seeded into 384-well culture plates (Corning) at 6000 cells/well. 24 hours after plating, cells were treated overnight with relevant compounds and assayed using DualGlo assay kit (Promega). Luminescent intensities were read by EnVision (PerkinElmer, Waltham, Mass.). Firefly luciferase intensity is normalized by renilla luciferase intensity.
Cells were cultured in 384 well plates to appropriate density (40 μl total plating volume). 24 hours after plating, cells were treated with 100 nl compounds. 24 hours after incubation with compounds (48 hours after plating), assay reagents were prepared by mixing Luciferase Assay solution with Luciferase substrate and Stop & Glo solution to Stop & Glo substrate (extra reagents can be aliquoted and frozen for future use and are stable for at least one freeze/thaw cycle). […] The plate was spun down and 10 minutes were allowed for signal stabilization. Luciferase signal on the Perkin Elmer EnVision using the following parameters: Distance between plate & detector (mm)=0.2; Measurement time(s)=0.1; Glow (CT2) correction factor=0. Once the initial data is secure, a volume of Stop & Glo was added equal to each well equal to the volume of Luciferase reagent added above (If 10 μl Luciferase Reagent was added, 10 μl Stop & Glo was also added). The plate was spun down and 10 minutes were allowed for signal stabilization. The plate was read on the EnVision using the same parameters detailed above.

[2] = system: β-catenin nuclear translocation in U2-OS cells; test: β-Catenin nuclear localization assay; assay type: cell-based; details: Homo sapiens, U2OS, read-out: beta-Catenin translocation EC50
Procedure: β-Catenin Nuclear Localization Assay
U2-OS cells stably expressing two complimentary β-galactosidase fragments (one part on β-Catenin and the other constitutively expressed in the cell nucleus) were maintained in DMEM F12 supplemented with 10% FBS. When β-catenin translocates to the nucleus, the complimentary fragments form a complete β-galactosidase, the amount of which is then quantified by β-galactosidase activity (DiscoveRx). Cells were seeded in a 384-well CulturPlate (Perkin Elmer, Boston, Mass.) with 10,000 per well in 20 μL DMEM F12 containing 10% FCS, 100 U/ml penicillin and 100 μg/mL streptomycin. After overnight incubation at 37° C., cells were stimulated with 100 nL test compound/well and then returned to the incubator for 6 h. Cells were disrupted using 12 μL substrate-containing lysis buffer from the PathHunter Detection Kit in the formulation specified by the supplier (DiscoveRx). Plates were incubated in the dark for 1 h at room temperature before measurement of β-galactosidase activity (luminescence) on an EnVision plate reader (PerkinElmer, Waltham, Mass.).

[3] = system: phospho-Tau (Ser199) in SH-SY5Y cells; test: Tau phosphorylation assay (phospho-Tau Ser199 ELISA); assay type: cell-based, human; details: Homo sapiens, SH-SY5Y, read-out: p-Tau Inhibition ELISA EC50 SH-SY5Y
Procedure: Tau Phosphorylation and Total Tau Assay
SH-SY5Y cells were maintained in DMEM supplemented with 10% heat-inactivated FBS and 1% penicillin-streptomycin (Invitrogen) unless otherwise stated. ELISA kits for phospho-Tau (Ser199) and total Tau detection were purchased from Invitrogen (KHB0041, and KHB7041 respectively). Briefly, SH-SY5Y cells were seeded at 50,000 cells/200 μL/well in 96 well plates and after overnight incubation, treated with various doses of chemical compounds at 0.2 μL/well. The next day cells were washed with PBS twice before being lysed in 100 μL Lysis buffer/well. 50 μL of cell lysate of each sample was transferred to an ELISA vial coated with the capture antibody, and the mixture was incubated at room temperature for 2 hours, before the supernatant was aspired, and each vial washed four times. 100 μL of detection antibody was then added to each well, incubated for 1 hour, and then washed four times. […] Data were scaled using the positive and neutral controls and fitted for IC50.
A standard protocol using an immunoassay kit to quantify total Tau protein and phospho-Tau (Ser199) protein in SH-SY5Y human neuroblastoma cells was employed. Human Tau (Total) ELISA kit (#KHB0041) and human phosphor-Tau (Ser199) ELISA kit were purchased from Invitrogen (#KHB7041)
50,000 cells were seeded in 200 μl per well in cell culture media (250,000 cells/ml). Cells were incubated overnight @37° C. Cells were induced with appropriate doses of inhibitors and incubated for approximately 24 hrs @37° C. Cell lysates were harvested by washing cells once with cold PBS and adding 100 μl cold lysis buffer and pipette up and down vigorously. Lysate was transferred to 96 well PCR plate and centrifuged at 4,000 rpm for 20 minutes at 4° C.
Well strips were warmed and inserted into the frame. 100μ of standard diluent buffer were loaded into ZERO wells, and 100 ul of each standard concentrations (both total Tau and pTau) were loaded into wells in duplicate. Samples were loaded to each well that would be analyzed for total Tau, 85 μl standard diluent buffer and 15 μl cell lysate were added. To each well that will be analyzed for pTau (Ser199) 50 μl standard diluent buffer+50 μl cell lysate were added. Plates were tapped gently on the side to mix. Certain wells were left empty for chromogen blank. Plates were covered and incubated for 2 hours at room temperature. Wells were aspirated 4 times (400 μl diluted wash buffer, left for 30 seconds, aspirated all wells; alternatively used automated plate washer and programmed in a 30 second hold between each cycle). 100 μl of detection antibody solution were added to each well except chromogen blanks. Anti-total Tau was added to wells being analyzed for total Tau, anti-pTau (Ser199) was added to wells being analyzed for pTau (Ser199), and plates were tapped gently on the side to mix. Plates were covered and incubated for 1 hour at room temperature, then wells were aspirated and washed 4 times as described above. 100 μl of anti-rabbit IgG HRP working solution (prepared ahead) were added to each well except chromogen blanks, and plates were covered and incubated for 30 minutes at room temperature, then wells were aspirated and washed 4 times as described above. 100 μl of stabilized chromogen were added to each well (the liquid turned blue). Plates were incubates for 30 minutes at room temperature in the dark, then 100 μl of stop solution were added to each well, and plates were tapped gently on the side to mix. Absorbance of each well was read at 450 nm (within 2 hours of adding stop solution).

[4] = HEK293, read-out: TCF/LEF EC50 (μM), HEK293 reporter cells
[5] = HEK293, read-out: TCF/LEF EC50 (μM)

| Structure (SMILES) | EC50 [1, 5] | EC50 [3] | other results |
| --- | --- | --- | --- |
| Cc1[nH]nc2c1C(c1ccncc1)C1=C(CC(C)(C)CC1=O)N2 (centres unmarked) [Compound 38, 3,7,7-trimethyl-4-(pyridin-4-yl)-6,7,8,9-tetrahydro-1H-pyrazolo[3,4-b]quinolin-5(4H)-one] | – | – | EC50 [1, 4]: > 25 µM |
| Cc1[nH]nc2c1[C@@H](c1ccccc1C#N)C1=C(CC(C)(C)CC1=O)N2 [Compound 32, 2-(3,7,7-trimethyl-5-oxo-4,5,6,7,8,9-hexahydro-2H-pyrazolo[3,4-b]quinolin-4-yl)benzonitrile] | 23.4 µM | – | – |
| Cc1[nH]nc2c1C(c1ccccn1)C1=C(CC(C)(C)CC1=O)N2 (centres unmarked) [Compound 36, 3,7,7-trimethyl-4-(pyridin-2-yl)-6,7,8,9-tetrahydro-1H-pyrazolo[3,4-b]quinolin-5(4H)-one] | > 25 µM | – | – |
| Cc1[nH]nc2c1C(c1cccc(Cl)c1)C1=C(CC(C)(C)CC1=O)N2 (centres unmarked) [Compound 14, 4-(3-chlorophenyl)-3,7,7-trimethyl-6,7,8,9-tetrahydro-1H-pyrazolo[3,4-b]quinolin-5(4H)-one] | 31.3 µM | – | – |
| CSc1ccccc1C1C2=C(CC(C)(C)CC2=O)Nc2n[nH]c(C)c21 (centres unmarked) [Compound 25, 3,7,7-trimethyl-4-(2-(methylthio)phenyl)-6,7,8,9-tetrahydro-2H-pyrazolo[3,4-b]quinolin-5(4H)-one] | 4.34 µM | 2.85 µM | EC50 [2]: 10.9 µM |
| COc1ccc(C2C3=C(CC(C)(C)CC3=O)Nc3n[nH]c(C)c32)cc1 (centres unmarked) [Compound 24, 4-(4-methoxyphenyl)-3,7,7-trimethyl-6,7,8,9-tetrahydro-1H-pyrazolo[3,4-b]quinolin-5(4H)-one] | > 25 µM | – | – |
| Cc1[nH]nc2c1[C@H](c1ccccc1Br)C1=C(CC(C)(C)CC1=O)N2 (racemic) [Compound 80, 4-(2-bromophenyl)-3,7,7-trimethyl-6,7,8,9-tetrahydro-2H-pyrazolo[3,4-b]quinolin-5(4H)-one] | 5.63 µM | – | – |
| Cc1ccc(C2C3=C(CC(C)(C)CC3=O)Nc3n[nH]c(C)c32)cc1 (centres unmarked) [Compound 19, 3,7,7-trimethyl-4-(p-tolyl)-6,7,8,9-tetrahydro-1H-pyrazolo[3,4-b]quinolin-5(4H)-one] | > 25 µM | – | – |
| Cc1[nH]nc2c1C(c1ccccc1F)C1=C(CC(C)(C)CC1=O)N2 (centres unmarked) [Compound 10, 4-(2-fluorophenyl)-3,7,7-trimethyl-6,7,8,9-tetrahydro-1H-pyrazolo[3,4-b]quinolin-5(4H)-one] | 12.7 µM | – | – |
| Cc1[nH]nc2c1C(c1ccsc1)C1=C(CC(C)(C)CC1=O)N2 (centres unmarked) [Compound 8, 3,7,7-trimethyl-4-(thiophen-3-yl)-6,7,8,9-tetrahydro-1H-pyrazolo[3,4-b]quinolin-5(4H)-one] | > 25 µM | – | – |
| Cc1[nH]nc2c1C(c1ccccc1Cl)C1=C(CC(C)(C)CC1=O)N2 (centres unmarked) [Compound 13, 4-(2-chlorophenyl)-3,7,7-trimethyl-6,7,8,9-tetrahydro-2H-pyrazolo[3,4-b]quinolin-5(4H)-one] | 24 µM | 2.49 µM | EC50 [2]: 41.1 µM |
| Cc1[nH]nc2c1C(c1ccc3c(c1)OCO3)C1=C(CC(C)(C)CC1=O)N2 (centres unmarked) [Compound 26, 4-(benzo[d][1,3]dioxol-5-yl)-3,7,7-trimethyl-6,7,8,9-tetrahydro-1H-pyrazolo[3,4-b]quinolin-5(4H)-one] | > 25 µM | – | – |
| Cc1[nH]nc2c1C(c1ccc(Br)cn1)C1=C(CC(C)(C)CC1=O)N2 (centres unmarked) [Compound 39, 4-(5-bromopyridin-2-yl)-3,7,7-trimethyl-6,7,8,9-tetrahydro-1H-pyrazolo[3,4-b]quinolin-5(4H)-one] | > 25 µM | – | – |
| Cc1[nH]nc2c1C(c1cccs1)C1=C(CC(C)(C)CC1=O)N2 (racemic) [Compound 5, 3,7,7-trimethyl-4-(thiophen-2-yl)-6,7,8,9-tetrahydro-1H-pyrazolo[3,4-b]quinolin-5(4H)-one] | > 25 µM | – | – |
| Cc1[nH]nc2c1C(C)(c1ccccc1)C1=C(CC(C)(C)CC1=O)N2 (centres unmarked) [Compound 67, 3,4,7,7-tetramethyl-4-phenyl-6,7,8,9-tetrahydro-2H-pyrazolo[3,4-b]quinolin-5(4H)-one] | > 25 µM | – | – |
| COc1ccccc1C1C2=C(CC(C)(C)CC2=O)Nc2n[nH]c(C(F)(F)F)c21 (racemic) [Compound 53, 4-(2-methoxyphenyl)-7,7-dimethyl-3-(trifluoromethyl)-6,7,8,9-tetrahydro-2H-pyrazolo[3,4-b]quinolin-5(4H)-one] | – | – | EC50 [2]: 14 µM; EC50 [1, 4]: 16.9 µM |
| Cc1[nH]nc2c1C(c1ccc(C(F)(F)F)cc1)C1=C(CC(C)(C)CC1=O)N2 (centres unmarked) [Compound 31, 3,7,7-trimethyl-4-(4-(trifluoromethyl)phenyl)-6,7,8,9-tetrahydro-2H-pyrazolo[3,4-b]quinolin-5(4H)-one] | > 25 µM | – | EC50 [2]: > 50 µM |
| Cc1[nH]nc2c1C(c1ccn[nH]1)C1=C(CC(C)(C)CC1=O)N2 (centres unmarked) [Compound 40, 3,7,7-trimethyl-4-(1H-pyrazol-5-yl)-6,7,8,9-tetrahydro-1H-pyrazolo[3,4-b]quinolin-5(4H)-one] | > 25 µM | – | – |
| COc1ccccc1C1C2=C(CC(C)(C)CC2=O)Nc2n[nH]c(C)c21 (racemic) [Compound 20, 4-(2-methoxyphenyl)-3,7,7-trimethyl-6,7,8,9-tetrahydro-1H-pyrazolo[3,4-b]quinolin-5(4H)-one] | 17.9 µM | 9.14 µM | – |

| Structure (SMILES) | EC50 [1, 5] | EC50 [3] | other results |
| --- | --- | --- | --- |
| Cc1[nH]nc2c1C(c1ccc(F)cc1)C1=C(CC(C)(C)CC1=O)N2 (centres unmarked) [Compound 12, 4-(4-fluorophenyl)-3,7,7-trimethyl-6,7,8,9-tetrahydro-1H-pyrazolo[3,4-b]quinolin-5(4H)-one] | > 25 µM | – | – |
| Cc1[nH]nc2c1C(c1ccccc1)(C(F)(F)F)C1=C(CC(C)(C)CC1=O)N2 (centres unmarked) [Compound 92, 1,6,6-trimethyl-9-phenyl-9-(trifluoromethyl)-5,6,7,9-tetrahydro-2H-pyrazolo[3,4-b]quinolin-8(4H)-one] | – | 20.4 µM | – |
| CC1(C)CC(=O)C2=C(C1)Nc1n[nH]c(Cl)c1C2(C)c1ccccc1 (centres unmarked) [Compound 110] | – | 4.55 µM | – |
| CC1(C)CC(=O)C2=C(C1)Nc1n[nH]c(C(F)(F)F)c1[C@@H]2c1ccccc1C(F)(F)F (stereo in doubt) [Compound 72, 7,7-dimethyl-3-(trifluoromethyl)-4-(2-(trifluoromethyl)phenyl)-6,7,8,9-tetrahydro-2H-pyrazolo[3,4-b]quinolin-5(4H)-one] | 1.49 µM | 0.426 µM | – |
| COc1cccc(C2C3=C(CC(C)(C)CC3=O)Nc3n[nH]c(C)c32)c1 (centres unmarked) [Compound 23, 4-(3-methoxyphenyl)-3,7,7-trimethyl-6,7,8,9-tetrahydro-1H-pyrazolo[3,4-b]quinolin-5(4H)-one] | > 25 µM | – | – |
| CC1(C)CC(=O)C2=C(C1)Nc1n[nH]c(C(F)(F)F)c1[C@H]2c1ccccc1C(F)(F)F (stereo in doubt) [Compound 73, 7,7-dimethyl-3-(trifluoromethyl)-4-(2-(trifluoromethyl)phenyl)-6,7,8,9-tetrahydro-2H-pyrazolo[3,4-b]quinolin-5(4H)-one] | > 25 µM | 22 µM | – |
| Cc1cccc(C2C3=C(CC(C)(C)CC3=O)Nc3n[nH]c(C)c32)c1 (centres unmarked) [Compound 18, 3,7,7-trimethyl-4-(m-tolyl)-6,7,8,9-tetrahydro-2H-pyrazolo[3,4-b]quinolin-5(4H)-one] | > 25 µM | – | EC50 [2]: > 50 µM |
| COC(=O)c1[nH]nc2c1C(C)(c1ccccc1)C1=C(CC(C)(C)CC1=O)N2 (centres unmarked) [Compound 104] | – | 4.48 µM | – |
| Cc1[nH]nc2c1C(c1ccc(Cl)s1)C1=C(CC(C)(C)CC1=O)N2 (centres unmarked) [Compound 9, 4-(5-chlorothiophen-2-yl)-3,7,7-trimethyl-6,7,8,9-tetrahydro-1H-pyrazolo[3,4-b]quinolin-5(4H)-one] | > 25 µM | – | – |
| Cc1[nH]nc2c1C(c1cccnc1)C1=C(CC(C)(C)CC1=O)N2 (centres unmarked) [Compound 37, 3,7,7-trimethyl-4-(pyridin-3-yl)-6,7,8,9-tetrahydro-1H-pyrazolo[3,4-b]quinolin-5(4H)-one] | > 25 µM | – | – |
| Cc1[nH]nc2c1[C@H](c1ccccc1C(F)(F)F)C1=C(CC(C)(C)CC1=O)N2 (stereo in doubt) [Compound 28, 3,7,7-trimethyl-4-(2-(trifluoromethyl)phenyl)-6,7,8,9-tetrahydro-2H-pyrazolo[3,4-b]quinolin-5(4H)-one] | 4.8 µM | 1.8 µM | EC50 [2]: 6.32 µM |
| CCC1(c2ccccc2)C2=C(CC(C)(C)CC2=O)Nc2n[nH]c(C)c21 (racemic) [Compound 89, 9-ethyl-1,6,6-trimethyl-9-phenyl-5,6,7,9-tetrahydro-2H-pyrazolo[3,4-b]quinolin-8(4H)-one] | – | 22.2 µM | – |
| CC1(C)CC(=O)C2=C(C1)Nc1n[nH]c(Br)c1C2(C)c1ccccc1 (centres unmarked) [Compound 111] | – | 2.98 µM | – |
| COc1ccccc1[C@H]1C2=C(CC(C)(C)CC2=O)Nc2n[nH]c(C)c21 [Compound 21, 4-(2-methoxyphenyl)-3,7,7-trimethyl-6,7,8,9-tetrahydro-1H-pyrazolo[3,4-b]quinolin-5(4H)-one] | > 25 µM | > 30 µM | – |
| Cc1[nH]nc2c1C(c1ccc(F)cc1Cl)C1=C(CC(C)(C)CC1=O)N2 (centres unmarked) [Compound 35, 4-(2-chloro-4-fluorophenyl)-3,7,7-trimethyl-6,7,8,9-tetrahydro-1H-pyrazolo[3,4-b]quinolin-5(4H)-one] | > 25 µM | – | – |
| Cc1[nH]nc2c1C(c1cccc(F)c1)C1=C(CC(C)(C)CC1=O)N2 (centres unmarked) [Compound 11, 4-(3-fluorophenyl)-3,7,7-trimethyl-6,7,8,9-tetrahydro-1H-pyrazolo[3,4-b]quinolin-5(4H)-one] | > 25 µM | – | – |
| Cc1[nH]nc2c1C(c1ccc(Cl)cc1)C1=C(CC(C)(C)CC1=O)N2 (centres unmarked) [Compound 15, 4-(4-chlorophenyl)-3,7,7-trimethyl-6,7,8,9-tetrahydro-1H-pyrazolo[3,4-b]quinolin-5(4H)-one] | > 25 µM | – | – |
| Cc1[nH]nc2c1C(c1ccc(C#N)cc1)C1=C(CC(C)(C)CC1=O)N2 (centres unmarked) [Compound 34, 4-(3,7,7-trimethyl-5-oxo-4,5,6,7,8,9-hexahydro-2H-pyrazolo[3,4-b]quinolin-4-yl)benzonitrile] | > 25 µM | – | – |
